As a reminder, the kcat/KM is the second-order rate constant that governs catalysis at low substrate concentration. What is called kcat is the number of substrate molecules converted per active site and unit of time at saturation.

This test addresses T1, Myriococcum thermophilum cellobiose dehydrogenase (CDH, SEQ ID NO: 1) variant W316L (Thermothelomyces myriococcoides, UniProt A9XK88, W316L).
T1 sequence (A9XK88 22-828 W316L): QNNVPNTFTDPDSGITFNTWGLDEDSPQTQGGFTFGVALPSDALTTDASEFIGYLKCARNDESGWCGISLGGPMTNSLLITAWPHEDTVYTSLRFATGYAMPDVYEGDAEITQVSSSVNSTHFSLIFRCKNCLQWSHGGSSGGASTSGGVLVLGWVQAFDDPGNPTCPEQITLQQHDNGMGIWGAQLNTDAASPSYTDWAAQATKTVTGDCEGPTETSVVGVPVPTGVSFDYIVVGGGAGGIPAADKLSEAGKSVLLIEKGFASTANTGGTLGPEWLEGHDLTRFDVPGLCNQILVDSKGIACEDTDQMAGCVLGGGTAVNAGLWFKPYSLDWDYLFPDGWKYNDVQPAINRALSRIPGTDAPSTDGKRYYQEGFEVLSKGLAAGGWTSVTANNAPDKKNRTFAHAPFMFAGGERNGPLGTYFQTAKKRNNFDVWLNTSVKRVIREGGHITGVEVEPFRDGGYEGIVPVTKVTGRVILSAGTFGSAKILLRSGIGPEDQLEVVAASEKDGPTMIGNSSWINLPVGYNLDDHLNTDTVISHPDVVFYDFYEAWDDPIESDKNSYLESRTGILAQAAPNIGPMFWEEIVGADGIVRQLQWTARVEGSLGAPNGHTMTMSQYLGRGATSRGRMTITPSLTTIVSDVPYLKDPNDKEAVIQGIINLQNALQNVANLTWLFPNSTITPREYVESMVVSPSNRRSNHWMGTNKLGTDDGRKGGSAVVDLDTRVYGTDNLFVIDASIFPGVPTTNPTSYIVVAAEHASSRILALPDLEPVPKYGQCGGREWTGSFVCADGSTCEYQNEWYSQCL
Nature of the test: Steady-state kinetics, DCIP assay: M. thermophilum CDH W316L. It counts as biochemical. Conditions: apparent, pH 4.5, 30° C. How it is done: Enzyme activity was assayed at 30° C. using either the DCIP (Karapetyan et al., 2005 Journal of Biotechnology 121: 34-48) or cytochrome c (Canevascini et al., 1991, European Journal of Biochemistry 198: 43-52) as electron acceptor. […] Stock solutions of carbohydrates used for kinetic measurements were prepared in the respective buffer and allowed to stand overnight for mutarotation, while stock solutions of electron acceptors were prepared in water and immediately used. The reaction stoichiometry is 1 for the two-electron acceptor DCIP (1 mole of DCIP reduced per mole of carbohydrate oxidized), but 2 for the one-electron acceptor cytochrome c. Kinetic constants were calculated by fitting the observed data to the Henri-Michaelis-Menten equation or to the adapted model for substrate inhibition using nonlinear least-squares regression and the program SigmaPlot (Systat Software, San Jose, Calif., USA). […]
Recombinant wild-type CDH as well as variants were produced in 1 L baffled flasks. […] Increase in activity was monitored using the DCIP and the cytochrome c enzyme assays. […]
The sample was loaded on a 20 mL PHE Sepharose FF column (HR26/20) equilibrated with 50 mM Na-acetate buffer pH 5.5 containing 20% ammonium sulfate. […] Fractions were tested for CDH activity and pooled according to the highest Reinheitszahl (RZ, calculated from the absorbance ratio 420 nm/280 nm). […]

SMILES strings stand for the structures.

With `OC[C@H]1O[C@H](O[C@H]2[C@H](O)[C@@H](O)C(O)O[C@@H]2CO)[C@H](O)[C@@H](O)[C@@H]1O` (some centres unmarked) [Maltose, maltose], the kcat/KM worked out at 2.6 M⁻¹ s⁻¹. Moreover, the kcat (~ values only estimated by non linear regression) was 0.59 s⁻¹.

Values taken from patent US10184115B2, “Mutated cellobiose dehydrogenase with increased substrate specificity” (DIRECTSENS GMBH, priority 2012, dated 2019).
